According to US9918968B2, “Rapamycin analogs targeting proteasome function in the treatment of cancer” (THE BOARD OF REGENTS OF THE UNIVERSITY OF TEXAS SYSTEM, priority 2013, dated 2018):
pEC50, pIC50: −log10 of the molar value. Like-named read-outs stand apart in the source and are kept apart here.

Assays:
[1] = target: chymotrypsin-like proteasome activity (Homo sapiens, UniProt P28074); details: read-out: IC50, chymotrypsin-like proteasome inhibition; cited from earlier work
[2] = test system: LoVo colon cancer; details: read-out: IC50, proliferation; cited from earlier work
[3] = test system: transplanted tumor; details: cited from earlier work; for proteasome inhibition in brain tissue: any time point
[4] = test system: MM xenograft tumors (LAGκ-1A); details: 14 d, cited from earlier work
[5] = test system: A2780 ovarian cancer cells; details: read-out: IC50, proliferation; cited from earlier work
[6] = test system: PC3 prostate cancer; details: read-out: IC50, proliferation; cited from earlier work
[7] = test system: RPMI8226 multiple myeloma cancer; details: read-out: IC50, proliferation; cited from earlier work
[8] = test system: HS-Sultan anaplastic non-Hodgkin lymphoma; details: read-out: IC50, proliferation; cited from earlier work
[9] = test system: H460; details: read-out: IC50, proliferation; cited from earlier work
[10] = test system: MDA-MB-231 (triple-negative breast cancer) cells; experiment: Viability/growth of MDA-MB-231 cells; type: cell-based, human; details: Homo sapiens, MDA-MB-231; 24 hours, drug alone; read-out: EC50 (concentration required to exclude 50% of cells)
Procedure: The cells were grown in 24 or 12-well cell culture plates. […] The final concentration of the solvent was 1% (vol/vol). The number of live and dead cells after the treatment was approximated with calcein AM and ethidium homodimer (LiveDead test, Invitrogen) according to manufacturer's protocol, or by a Trypan Blue exclusion assay. In short, the cells after the treatment were washed three times with PBS and overlaid (surface-growing) or mixed (suspension-growing) with 4 microM calcein AM and 2 microM ethidium homodimer in PBS. […] The cell counts were approximated using standard curves of live and digitonin-killed cells prepared for each strain. Alternatively, after cell treatment the medium was removed, the surface growing cells were overlaid with Trypan Blue solution, and the colorless (live) and blue-colored (dead) cells were counted under the inverted microscope.

[11] = test system: RPMI 8226 myeloma cells; experiment: Live/dead cell count, RPMI 8226 myeloma cells; type: cell-based, human; details: 5 nM, 48 hrs
Procedure: (§1) Culture Collection; ATCC) were cultured according to ATCC specifications: HeLa.S3 cervical adenocarcinoma, MCF7 breast adenocarcinoma, MDA-MB-231 breast adenocarcinoma (representing triple negative breast cancer), and RPMI 8226 myeloma. The cells were grown in 24 or 12-well cell culture plates. When the cells reached about 60% confluency (surface-growing HeLa.S3,MCF7 and MDA-MB-231) or a density of about 7×10^5 (suspension-growing RPMI 8226), the inhibitors dissolved in DMSO or the solvent (DMSO) diluted in respective culture medium were added and the cells were further cultured for additional 48 hours. […] The final concentration of the solvent was 1% (vol/vol). The number of live and dead cells after the treatment was approximated with calcein AM and ethidium homodimer (LiveDead test, Invitrogen) according to manufacturer's protocol, or by a Trypan Blue exclusion assay. In short, the cells after the treatment were washed three times with PBS and overlaid (surface-growing) or mixed (suspension-growing) with 4 microM calcein AM and 2 microM ethidium homodimer in PBS. Fluorescence of calcein and DNA-bound ethidium homodimer was measured with Fluoroskan Ascent plate reader, at 485 nm (excitation)/538 nm (emission) and 530 nm/619 nm, respectively. The cell counts were approximated using standard curves of live and digitonin-killed cells prepared for each strain. Alternatively, after cell treatment the medium was removed, the surface growing cells were overlaid with Trypan Blue solution, and the colorless (live) and blue-colored (dead) cells were counted under the inverted microscope.

[12] = test system: HeLa.S3 cervical carcinoma cells; experiment: Live/dead cell count, HeLa.S3 cells; type: cell-based, human; details: 48 hrs
Procedure: as §1

[13] = test system: T1, human 20S proteasome, ChT-L peptidase; experiment: ChT-L peptidase activity of purified human 20S proteasome (Suc-LLVY-MCA); type: biochemical
T1 construct: purchased Enzo LifeSciences
Procedure: Human purified proteasome complexes were purchased from Enzo LifeSciences or Boston Biochemicals (19S complex). BODIPY-casein (Invitrogen/Molecular Probes) was used as a model protein substrate, with increasing fluorescence of BODIPY labeled peptide products of degradation monitored for up to 8 hours at 37° C. The peptidase activity of the enzyme was measured as arbitrary intensity units of the released fluorescent group 7-amino-4-methylcoumarin (AMC) from peptide substrates, as described. […] Proteasome substrates, rapamycin, its derivatives, and competing peptides were stocked in DMSO and diluted 100-fold in the reaction mixtures. The Rpt5 and PA200 C-terminal peptides were synthesized in the Departmental Peptide Synthesis Core using the standard SPPS chemistry. To activate the latent 20S proteasome, 0.005% (final concentration) of sodium dodecyl sulfate (SDS) was used. […] The fluorescence of products was monitored every 2 minutes with a Fluoroskan Ascent plate reader. Reaction rates were calculated from smoothed linear segment of kinetic curves using OriginPro 8.6 (OriginLabs, Northampton, Mass.). For the determination of an inhibition type, at least six distinct substrate concentrations and two inhibitor concentrations were used. The kinetic parameters of inhibition were analyzed in terms of the Michaelis-Menten formalism using the enzyme kinetic module of SigmaPlot v.12 (Systat Software, Inc, San Jose, Calif.) to perform the respective calculations. […]
The in vitro assay for testing the ChT-L peptidase activity of the purified human 20S proteasome was performed as described above.

[14] = test system: MCF7 breast carcinoma cells; experiment: Live/dead cell count, MCF7 cells; type: cell-based, human; details: 100 nM bortezomib
Procedure: as §1, with “In short, the cells after the treatment were washed three times with PBS and overlaid (surface-growing) or mixed (suspension-growing) with 4 microM calcein AM and 2 microM ethidium homodimer in PBS.” left out, “The cell counts were approximated using standard curves of live and digitonin-killed cells prepared for each strain.” left out

SMILES: CC(C)C[C@H](NC(=O)[C@@H](NC(=O)c1cccc(-c2ccccc2)n1)[C@@H](C)O)B(O)O [Delanzomib]
- pIC50 [1]: 8.42
- pIC50 [2]: 7.95
- proteasome inhibition in brain tissue [3]: No proteasome inhibition is detected
- maximum apoptotic signal versus bortezomib ([3]; caspase-3 and 7 activity in tumor, equiactive doses): 2.5 fold
- tumors smaller than control ([4]; twice weekly 3 mg/kg i.v.): approximately 8 times
- tumors smaller than control ([4]; twice weekly 10 mg/kg orally): ~12 times
- pIC50 [5]: 7.86
- pIC50 [6]: 7.65
- pIC50 [7]: 8.25
- pIC50 [8]: 8.09
- pIC50 [9]: 7.47

SMILES: CC(C)C[C@H](NC(=O)[C@H](Cc1ccccc1)NC(=O)c1cnccn1)B(O)O [bortezomib]
- pEC50 [10]: 6.13
- proteasome inhibition in brain tissue [3]: No proteasome inhibition is detected
- incidence of CR (complete tumor regression) ([3]; at MTD of 1.2 mg/kg intravenously): 50%
- maximally tolerated dose (MTD) ([3]; intravenously): 1.2 mg/kg
- dead cells [11]: 18%
- remaining live cells ([11]; 100% = live cells in DMSO control): 10%
- dead cells, of total cell count ([12]; up to 100 nM bortezomib): up to 16%
- changes in cell proliferation ([12]; up to 100 nM): did not induce significant changes
- remaining ChT-L activity ([13]; 5 nM BZ alone): 83%
- remaining ChT-L activity ([13]; 50 nM bortezomib alone): 68%
- live cell count, of the control [14]: about 53%
